Data taken from US8501786B2, “Hydroxymethyl pyrrolidines as beta 3 adrenergic receptor agonists” (Merck Sharp & Dohme Corp., priority 2009, dated 2013).

Biological target: T1, human β3 adrenergic receptor (Homo sapiens, UniProt P13945)
T1 construct: stably transfected with the cloned β-adrenergic receptor (β1, β2 or β3); expressed in transfected cells; host or cells: Chinese hamster ovary (CHO) cells, stably transfected
Assay: Functional assay: cAMP production (LANCE TR-FRET) in CHO cells stably transfected with cloned β3 adrenergic receptor
Type: cell-based
Details: Table 3; cAMP production, CHO cells expressing human β3 AR; read-out: Human β3 functional
Procedure: Functional Assay: cAMP production in response to ligand is measured according to Barton, et al. (1991, Agonist-induced desensitization of D2 dopamine receptors in human Y-79 retinoblastoma cells. Mol. Pharmacal. v3229:650-658) modified as follows, cAMP production is measured using a homogenous time-resolved fluorescence resonance energy transfer immunoassay (LANCE™, Perkin Elmer) according to the manufacture's instructions. Chinese hamster ovary (CHO) cells, stably transfected with the cloned β-adrenergic receptor (β1, β2 or β3) are harvested after 3 days of subculturing. Harvesting of cells is done with Enzyme-free Dissociation Media (Specialty Media). Cells are then counted and resuspended in assay buffer (Hank's Balanced salt solution supplemented with 5 mM HEPES, […]) containing a phosphodiesterase inhibitor (IBMX, 0.6 mM). The reaction is initiated by mixing 6,000 cells in 6 μL with 6 μL Alexa Fluor labeled cAMP antibody (LANCE™ kit) which is then added to an assay well containing 12 μL of compound (diluted in assay buffer to 2× final concentration). The reaction proceeds for 30 min at room temperature and is terminated by the addition of 24 ul detection buffer (LANCE™ kit). The assay plate is then incubated for 1 h at room temperature and time-resolved fluorescence measured on a Perkin Elmer Envision reader or equivalent. The unknown cAMP level is determined by comparing fluorescence levels to a cAMP standard curve.
The non-selective, full agonist β-adrenergic ligand isoproterenol is used at all three receptors to determine maximal stimulation. The human β3 adrenergic receptor (AR) selective ligand (S)-N-[4-[2-[[2-hydroxy-3-(4-hydroxyphenoxy)propyl]amino]ethyl]-phenyl]-4-iodobenzenesulfonamide is used as a control in all assays. Isoproterenol is titrated at a final concentration in the assay of 10^-10 M to 10-5 and the selective ligand (S)-N-[4-[2-[[2-hydroxy-3-(4-hydroxyphenoxy)propyl]amino]ethyl]phenyl]-4-iodobenzenesulfonamide is titrated at the β3 receptor at concentration of 10^-10 M to 10^-5 M. Unknown ligands are titrated at all 3 β-adrenergic receptor subtypes at a final concentration in the assay of 10^-10 M to 10^-5 M to determine the EC50. The EC50 is defined as the concentration of compound that gives 50% activation of its own maximum. Data are analyzed using Microsoft Excel and Graphpad Prism or an internally developed data analysis software package.

T1 sequence (P13945 whole entry): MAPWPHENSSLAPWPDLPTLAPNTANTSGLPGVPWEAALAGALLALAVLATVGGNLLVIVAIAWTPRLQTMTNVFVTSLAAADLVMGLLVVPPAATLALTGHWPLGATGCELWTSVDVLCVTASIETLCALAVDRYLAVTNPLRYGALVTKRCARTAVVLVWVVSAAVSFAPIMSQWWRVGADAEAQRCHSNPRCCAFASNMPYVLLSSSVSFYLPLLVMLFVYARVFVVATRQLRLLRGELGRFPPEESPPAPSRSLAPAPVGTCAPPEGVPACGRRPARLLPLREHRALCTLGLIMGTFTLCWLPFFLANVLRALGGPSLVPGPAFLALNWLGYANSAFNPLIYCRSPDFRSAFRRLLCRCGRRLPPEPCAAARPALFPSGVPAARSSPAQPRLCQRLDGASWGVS

Compound	EC50 [nM]
O=C(Nc1ccc(CC2CC[C@H]([C@H](O)c3cccnc3)N2)cc1)C1CCc2nccc(=O)n21 (single isomer, unassigned) [Example 160]	1 to 10
O=C(Nc1ccc(CC2CC[C@H]([C@H](O)c3cccnc3)N2)cc1)C1CCc2nccc(=O)n21 (single isomer, unassigned) [Example 161]	1 to 10
CC(C(=O)Nc1ccc(CC2CC[C@H]([C@H](O)c3cccnc3)N2)cc1)n1ncccc1=O (single isomer, unassigned) [Example 162]	1 to 10
CC(C(=O)Nc1ccc(C[C@@H]2CC[C@H]([C@H](O)c3cccnc3)N2)cc1)n1ncccc1=O (single isomer, unassigned) [Example 163]	1 to 10
CC(C(=O)Nc1ccc(CC2CC[C@H]([C@H](O)c3cccnc3)N2)cc1)n1cnccc1=O (single isomer, unassigned) [Example 164]	1 to 10
CC(C(=O)Nc1ccc(CC2CC[C@H]([C@H](O)c3cccnc3)N2)cc1)n1cnccc1=O (single isomer, unassigned) [Example 165]	1 to 10
CC(C(=O)Nc1ccc(CC2CC[C@H]([C@H](O)c3cccnc3)N2)cc1)n1cccnc1=O (single isomer, unassigned) [Example 166]	1 to 10
CC(C(=O)Nc1ccc(C[C@@H]2CC[C@H]([C@H](O)c3cccnc3)N2)cc1)n1cccnc1=O (single isomer, unassigned) [Example 167]	1 to 10
Cc1noc2c1CCC2C(=O)Nc1ccc(CC2CC[C@H]([C@H](O)c3cccnc3)N2)cc1 (single isomer, unassigned) [Example 168]	1 to 10
Cc1noc2c1CCC2C(=O)Nc1ccc(CC2CC[C@H]([C@H](O)c3cccnc3)N2)cc1 (single isomer, unassigned) [Example 169]	11 to 100
Cc1nnc2n1CCC2C(=O)Nc1ccc(CC2CC[C@H]([C@H](O)c3cccnc3)N2)cc1 (single isomer, unassigned) [Example 170]	11 to 100
Cc1nnc2n1CCC2C(=O)Nc1ccc(CC2CC[C@H]([C@H](O)c3cccnc3)N2)cc1 (single isomer, unassigned) [Example 171]	11 to 100
CC(C(=O)Nc1ccc(CC2CC[C@H]([C@H](O)c3cccnc3)N2)cc1)c1nccs1 (single isomer, unassigned) [Example 174]	1 to 10
CC(C(=O)Nc1ccc(CC2CC[C@H]([C@H](O)c3cccnc3)N2)cc1)c1nccs1 (single isomer, unassigned) [Example 175]	1 to 10
Cc1cc(C(C)C(=O)Nc2ccc(CC3CC[C@H]([C@H](O)c4cccnc4)N3)cc2)[nH]n1 (single isomer, unassigned) [Example 176]	11 to 100
Cc1cc(C(C)C(=O)Nc2ccc(CC3CC[C@H]([C@H](O)c4cccnc4)N3)cc2)[nH]n1 (single isomer, unassigned) [Example 177]	101 to 1000
CC(C(=O)Nc1ccc(CC2CC[C@H]([C@H](O)c3cccnc3)N2)cc1)c1ccn[nH]1 (single isomer, unassigned) [Example 178]	1 to 10
CC(C(=O)Nc1ccc(CC2CC[C@H]([C@H](O)c3cccnc3)N2)cc1)c1ccn[nH]1 (single isomer, unassigned) [Example 179]	11 to 100
CC(C(=O)Nc1ccc(CC2CC[C@H]([C@H](O)c3cccnc3)N2)cc1)c1nnn(C)n1 (single isomer, unassigned) [Example 180]	11 to 100
CC(C(=O)Nc1ccc(CC2CC[C@H]([C@H](O)c3cccnc3)N2)cc1)c1nnn(C)n1 (single isomer, unassigned) [Example 181]	11 to 100
CC(C(=O)Nc1ccc(CC2CC[C@H]([C@H](O)c3cccnc3)N2)cc1)n1cnnn1 (single isomer, unassigned) [Example 182]	11 to 100
CC(C(=O)Nc1ccc(CC2CC[C@H]([C@H](O)c3cccnc3)N2)cc1)n1cnnn1 (single isomer, unassigned) [Example 183]	1 to 10
CCC(C(=O)Nc1ccc(CC2CC[C@H]([C@H](O)c3cccnc3)N2)cc1)n1cccn1 (single isomer, unassigned) [Example 184]	1 to 10
